Results from article PMC10580381 (ACS Pharmacology & Translational Science, 2023).
“Also recorded” adds a separate entry of the source.

How the values were obtained:
[1] = biological target: T1, recombinant human HDAC2 (Homo sapiens, UniProt Q92769); experiment: Biochemical HDAC activity assay, recombinant HDAC2; conditions: recombinant HDAC2, mean ± SD, three independent experiments
T1 construct: purchased Creative Biomart

[2] = biological target: recombinant human HDAC3 (Homo sapiens, UniProt O15379); experiment: biochemical
recombinant human HDAC3, sequence (O15379 whole entry): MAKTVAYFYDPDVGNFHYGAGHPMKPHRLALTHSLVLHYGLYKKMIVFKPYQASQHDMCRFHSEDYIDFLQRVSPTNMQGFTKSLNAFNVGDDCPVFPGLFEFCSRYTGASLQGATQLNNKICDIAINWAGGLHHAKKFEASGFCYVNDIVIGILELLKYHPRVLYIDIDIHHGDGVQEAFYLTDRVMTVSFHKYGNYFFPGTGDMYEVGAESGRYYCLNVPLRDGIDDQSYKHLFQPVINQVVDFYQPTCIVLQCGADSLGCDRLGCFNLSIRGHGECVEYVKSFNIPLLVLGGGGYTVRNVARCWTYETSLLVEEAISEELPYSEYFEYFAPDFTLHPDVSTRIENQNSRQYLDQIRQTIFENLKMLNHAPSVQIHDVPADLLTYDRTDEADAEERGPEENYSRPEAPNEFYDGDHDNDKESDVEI
recombinant human HDAC3, sequence (Q9Y618 395-489 partner limits assumed): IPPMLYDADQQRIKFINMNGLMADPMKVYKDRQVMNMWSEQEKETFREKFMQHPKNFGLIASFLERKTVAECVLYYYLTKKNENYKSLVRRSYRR

[3] = system: H820 cells; experiment: cells; conditions: Homo sapiens, NCI-H820, read-out: cell viability (%)
[4] = in vivo; cited from earlier work
[5] = system: H1975 cells; experiment: Transwell invasion assay; format: cell-based, human; conditions: flunarizine 5 or 10 μM, 48 h
[6] = system: α-tubulin acetylation; experiment: Western blot of α-tubulin acetylation in H1975 cells; format: cell-based, human; conditions: flunarizine up to 10 μM, 24 h
Procedure: After the cancer cells were treated with the designated drug candidates, they were harvested in lysis buffer (0.05 M HEPES, 0.15 M NaCl, 2 mM EDTA, 10% v/v glycerol, and 1% v/v Triton X-100, pH 7.4) supplemented with protease and phosphatase inhibitors. Sodium dodecyl sulfate poly(acrylamide) gel electrophoresis (SDS-PAGE) was used to separate the different proteins in the whole cell lysates, which were then transferred to a poly(vinylidene difluoride) membrane for immunoblot analysis using different specific antibodies (acetylated histone H3, acetylated α-tubulin, histone H3, or GAPDH; Cell Signaling Technology). The bands corresponding to specific proteins of interest were visualized by using the WesternBright ECL HRP substrate (Advansta, San Jose, California). A chemiluminescent Western blot signal was detected and analyzed using a ChemiDoc MP system (Bio-Rad Laboratories, Hercules, California).

[7] = biological target: T2, recombinant human HDAC8 (Homo sapiens, UniProt Q9BY41); experiment: biochemical
T2 sequence (Q9BY41 1-377): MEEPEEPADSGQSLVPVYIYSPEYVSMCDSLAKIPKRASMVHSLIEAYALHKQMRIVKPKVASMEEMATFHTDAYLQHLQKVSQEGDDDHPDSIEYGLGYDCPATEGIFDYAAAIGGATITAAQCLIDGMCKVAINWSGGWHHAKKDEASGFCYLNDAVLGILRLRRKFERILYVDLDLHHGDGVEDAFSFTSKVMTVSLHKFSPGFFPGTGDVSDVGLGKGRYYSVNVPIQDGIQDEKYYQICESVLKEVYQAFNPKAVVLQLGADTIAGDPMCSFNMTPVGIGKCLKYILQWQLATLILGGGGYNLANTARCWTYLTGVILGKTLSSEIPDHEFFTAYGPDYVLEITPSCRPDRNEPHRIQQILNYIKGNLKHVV

[8] = system: Bim (BCL2L11); experiment: Real-time PCR of Bim expression in H1975; format: cell-based, human; conditions: H1975, 24 h, flunarizine 2.5, 5, or 10 μM or SAHA 0.25, 0.5, or 1 μM; all concentrations tested
Procedure: Reverse transcription was performed using 1 μg of total RNA sample with the PrimeScript First Strand cDNA Synthesis Kit (TaKaRa Biomedical Technology) at 37 °C for 10 min. The cDNA was then amplified by real-time PCR to determine the relative expression of p27^Kip1 and BIM using the KAPA SYBR FAST qPCR kit (KapaBiosystems, Wilmington, Massachusetts) with a LightCycler 480 Instrument I instrument (Roche Applied Science, Indianapolis, Indiana). The house-keeping gene GAPDH was also measured for normalization. Specific primer sequences used in the PCR reactions are p27^Kip1, forward 5′-[…]-3′ and reverse 5′-[…]-3′; Bim, forward 5′-[…]-3′ and reverse 5′-[…]-3′; and GAPDH, forward 5′-[…]-3′ and reverse 5′-[…]-3′. The PCR temperature program was set at 95 °C for 5 min, followed by 35 cycles of 95 °C for 10 s and 60 °C for 10 s. The fluorescent signal was detected at the end of the PCR elongation step of every cycle to keep track of the amount of amplified DNA. ΔCt was calculated by subtracting the Ct of GAPDH from the Ct of Bim or p27^Kip1. Fold change in gene expression was analyzed by the 2^–ΔΔCt method.

[9] = system: A549 cells; experiment: SRB cell proliferation assay, A549; conditions: Homo sapiens, A549, read-out: cell viability (%)
[10] = system: H1975 cells; experiment: cells; conditions: Homo sapiens, NCI-H1975, read-out: cell viability (%)

T1 sequence (Q92769 whole entry): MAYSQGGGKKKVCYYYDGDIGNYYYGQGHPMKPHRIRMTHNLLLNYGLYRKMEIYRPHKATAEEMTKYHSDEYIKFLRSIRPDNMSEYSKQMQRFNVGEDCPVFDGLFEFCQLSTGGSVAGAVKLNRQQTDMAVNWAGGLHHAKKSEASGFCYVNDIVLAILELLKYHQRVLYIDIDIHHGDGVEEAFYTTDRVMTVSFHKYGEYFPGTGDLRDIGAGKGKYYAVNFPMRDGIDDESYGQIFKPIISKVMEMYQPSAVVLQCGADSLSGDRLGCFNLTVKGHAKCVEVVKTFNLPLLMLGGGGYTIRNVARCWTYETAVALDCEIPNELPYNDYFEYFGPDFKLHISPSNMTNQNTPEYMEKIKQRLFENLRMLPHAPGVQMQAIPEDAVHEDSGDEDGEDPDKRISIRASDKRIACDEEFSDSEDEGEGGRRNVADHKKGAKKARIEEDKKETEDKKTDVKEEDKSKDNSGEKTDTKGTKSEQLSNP

IC50 [1]: 0.36 ± 0.026 µM | IC50 [2]: 0.305 ± 0.031 µM | IC50 [7]: 5.5 ± 0.45 µM
SMILES: Fc1ccc(C(c2ccc(F)cc2)N2CCN(C/C=C/c3ccccc3)CC2)cc1 [flunarizine]
viability at 2.5 µM [3]: 103 ± 5% | viability at 5 µM [3]: 94 ± 7% | elimination half-life [4]: around 18 days | cancer cell invasion [5]: inhibition | effect on acetylation of α-tubulin [6]: did not affect acetylation of α-tubulin; also recorded: did not affect the acetylation | Bim expression [8]: significantly increase | viability at 2.5 µM [9]: 101 ± 5% | viability at 5 µM [9]: 95 ± 6% | viability at 10 µM [9]: 102 ± 8% | viability at 2.5 µM [10]: 95 ± 8% | viability at 5 µM [10]: 94 ± 6% | viability at 10 µM [10]: 86 ± 7%
